In patent US5103018A, “Mitomycin derivatives” (Kyowa Hakko Kogyo Kabushiki Kaisha, priority 1986, dated 1992):
≈ marks a conversion by molar mass, not a printed value. Like-named read-outs stand apart in the source and are kept apart here.

Legend:
[1] = system: Staphylococcus aureus ATCC 6583P; assay: Minimum inhibitory concentration, agar dilution method, SA; assay type: cell-based; settings: ATCC6583P
Excerpt: (§1) Certain Compounds I were selected. Table 3 indicates their anti-bacterial activities in terms of their minimum inhibitory concentration (μg/ml), determined by the agar dilution method effected at a pH of 7.0. In this table, the microorganisms used are abbreviated as follows:
SA: Staphylococcus aureus ATCC 6583P

[2] = system: Streptococcus faecalis ATCC 10541; assay: Minimum inhibitory concentration, agar dilution method, SF; assay type: cell-based; settings: Enterococcus faecalis
Excerpt: as §1
SF: Streptococcus faecalis ATCC 10541

Escherichia coli ATCC 26 = assay: Minimum inhibitory concentration, agar dilution method, EC; assay type: cell-based
Excerpt: as §1
EC: Escherichia coli ATCC 26

[3] = system: Proteus vulgaris ATCC 6897; assay: Minimum inhibitory concentration, agar dilution method, PV; assay type: cell-based
Excerpt: as §1
PV: Proteus vulgaris ATCC 6897

P388 Leukemia = assay: Effect upon Leukemia P 388; assay type: in vivo, mouse (CDF1); settings: single i.p., 33 days
Method: (5) Effect upon Leukemia P 388:
Ascites cells were collected from P388 Leukemia-carrying mouse (DBA/2) 7 days after the implantation. The number of the cells of P388 Leukemia in the sample was counted. A physiological solution of sodium chloride was sterilized and used to prepare a cell suspension containing 5×10^6 tumour cells per ml. On each occasion, 0.2 ml of the suspension containing 1×10^6 cells was implanted into the abdominal cavity of each mouse (CDF1; body weight 20~25 g). 24 hours after implantation, the test compound was once given to each mouse of a test group consisting of 6 mice by abdominal injection.
The activity of the test samples was determined by the ratio of the average survival days of the treated animals to the average survival days of untreated animals viz. ILS % (Increased Life Span).

Sarcoma 180 solid tumour = assay: animal or person; assay type: in vivo, mice (ddy strain); settings: Mus musculus, Sarcoma-180, ip, 168 h, read-out: ED50 ip
Excerpt: (§2) Certain compounds were selected from Compounds I. The following Table 4 indicates anti-tumour activity against Sarcoma 180 solid tumour (ED50), acute toxicity (LD50) and effects on the peripheral leucocytes (WBC4000) of each compound.
(1) Effect against Sarcoma 180 solid tumour:
5×10^6 cells of Sarcoma 180 solid tumour cells were abdominally implanted into male mice of ddy strain. 7 days after this, ascites cells were sampled. The cells were washed once with a sterilized physiological solution of sodium chloride and were used to prepare a cell suspension containing 5×10^7 cells per ml. On each occasion, 0.1 ml of the cell suspension was subcutaneously implanted into the right armpit of a male mouse (ddy strain; body weight 20±2 g). 24 hours after the implantation of the tumour cells, the test compound which was dissolved in a physiological solution of sodium chloride with or without addition of Tween 80 was abdominally administered to each mouse of a group consisting of 5 animals at a does of 0.1-0.2 ml. The anti-tumour activity was determined as follows:
7 days after the implantation, the major axis (a) and the minor axis (b) of the tumour were measured to calculate a value of "a×b^2 /2" which corresponds to the volume of the tumour. The anti-tumour activity was expressed by T/C viz. the ratio of the volume of the tumours (T) of the group of animals administered with the test compound to the corresponding volume of tumours (C) of the untreated animals.
(2) Determination of ED50 :
The term ED50 denotes the administered amount needed for reducing the volume of Sarcoma 180 solid tumours in the animals to 50% on the basis of the corresponding volume of Sarcoma 180 solid tumours in control (untreated) animals.
On graph paper, T/C was indicated by an arithmetic scale on the longitudinal axis and the administered amount of test compound was indicated by a logarithmic scale on the lateral axis.

in vivo = assay type: in vivo, mice (ddy strain); settings: mouse, in vivo, ip; read-out: (WBC4000/ED50)* = (WBC4000/ED50)/[(WBC4000/ED50) of MMC1]
Method: as §2
(4) Effect upon the number of the peripheral leucocytes:
Sarcoma 180 solid tumour cells (5×10^6) were subcutaneously implanted into the right armpit of each mouse (body weight 20±2 g) of a group consisting of 5 male mice (ddy strain). 24 hours after implantation,a test compound was abdominally administered to each mouse. 4 days later, blood (each 0.02 ml) was collected from the suborbital plexus vein of each tumour-carrying mouse. The collected sample of blood was dispersed in 9.98 ml of Cell-kit Seven solution. One drop of saponin solution was added to the sample to dissolve erythrocytes and then a microcell counter was used to measure the number of leucocytes. On graph paper, the number of leucocytes was indicated on the y-axis by an arithmetic scale and the does of the test compound was indicated on the x-axis by a logarithmic scale.
The relationship between the number of peripheral leucocytes and the dosage of the test compound was plotted to obtain WBC4000 viz. the dosage corresponding to […] per mm^3 (about half of the number of leucocytes of normal mice).

Acute toxicity = assay type: in vivo, mice (ddy); settings: mouse, in vivo, ip; for LD50 at 336 h: ddy mice, single i.p., 14 days, Behren Korber's method; for selectivity ratio: read-out: (C.I.)* = (LD50/ED50)/[(LD50/ED50) of MMC1]
Method: as §2
Each animal of the test group consisting of 5 ddy mice was once administered (i.p.) with a test compound. […] The LD50 was determined by Behren Korber's method.

Solubility in water = assay type: physicochemical; settings: water
[4] = system: Klebsiella pneumoniae ATCC 10031; assay: microbe, parasite or virus in culture; assay type: cell-based; settings: ATCC10031, pH 7, read-out: minimum inhibitory concentration, KP
Excerpt: Certain Compounds I were selected. […] In this table, the microorganisms used are abbreviated as follows:
KP: Klebsiella pneumoniae ATCC 10031

[5] = Staphylococcus aureus, pH 7, read-out: minimum inhibitory concentration, SA
[6] = ATCC10541, pH 7, read-out: minimum inhibitory concentration, SF
[7] = Proteus vulgaris, ATCC6897, pH 7, read-out: minimum inhibitory concentration, PV

SMILES | ED50 (Sarcoma 180 solid tumour) [mg/kg] | selectivity ratio (in vivo) | LD50 at 336 h (Acute toxicity) [mg/kg] | selectivity ratio (Acute toxicity) | MIC [1, 5] [µg/mL] | MIC [2, 6] [µg/mL] | MIC [4] [µg/mL] | MIC [3, 7] [µg/mL] | other results
CO[C@@]12[C@H](COC(N)=O)C3=C(C(=O)C(C)=C(N)C3=O)N1C[C@@H]1N[C@@H]12 [MM-C, mitomycin C, reference compound] |  |  |  |  |  |  |  |  | MIC ([1]; agar dilution method, pH 7.0, Staphylococcus aureus, read-out: minimum inhibitory concentration, SA): 0.04 µg/mL (≈ 0.12 µM); MIC ([2]; ATCC10541, agar dilution method, pH 7.0, Streptococcus faecalis, read-out: minimum inhibitory concentration, SF): 0.08 µg/mL (≈ 0.239 µM); MIC (Escherichia coli ATCC 26; ATCC26, agar dilution method, pH 7.0, Escherichia coli, read-out: minimum inhibitory concentration, EC): 10 µg/mL (≈ 29.9 µM); MIC ([3]; ATCC6897, agar dilution method, pH 7.0, Proteus vulgaris, read-out: minimum inhibitory concentration, PV): 0.02 µg/mL (≈ 0.0598 µM)
CO[C@@]12[C@H](COC(N)=O)C3=C(C(=O)C(C)=C(NCCSSCc4cn([C@H]5C[C@H](O)[C@@H](CO)O5)c(=O)[nH]c4=O)C3=O)N1C[C@@H]1N[C@@H]12 [Compound 39, 7-N-[2-[[(2'-deoxyuridin-5-yl)methyl]dithio]ethyl]mitomycin C] | 34.7 | 1.5 | 75 | 1.37 |  |  |  |  | ILS* (ratio of ILS % to that of mitomycin C) (P388 Leukemia; dose 50 mg/kg): 1.83
CO[C@@]12[C@H](COC(N)=O)C3=C(C(=O)C(C)=C(NCCSSCCOC(=O)/C=C(C)/C=C/C=C(C)/C=C/C4=C(C)CCCC4(C)C)C3=O)N1C[C@@H]1N[C@@H]12 [Compound 35, 7-N-[2-[[2-(retinoyloxy)ethyl]dithio]ethyl]mitomycin C] |  |  |  |  | 5 (≈ 6.64 µM) | 10 (≈ 13.3 µM) |  |  | 
CO[C@@]12[C@H](COC(N)=O)C3=C(C(=O)C(C)=C(NCCSSCCC(=O)NC[C@H](O)c4ccc(O)c(O)c4)C3=O)N1C[C@@H]1N[C@@H]12 [Compound 32] | 7.1 | 2.39 | 30 | 1.56 |  |  |  |  | ILS* (ratio of ILS % to that of mitomycin C) (P388 Leukemia; dose 3.13 mg/kg): > 1.44
CC1=C(NCCSSCCNC(=O)CC[C@H](N)C(=O)O)C(=O)C2=C(C1=O)N1C[C@H]3[C@H](N3C)[C@]1(O)[C@H]2COC(N)=O (stereo partly drawn) [Compound 2, 7-N-[2-[[2-(N^5 -L-glutamino)ethyl]dithio]ethyl]mitomycin D] | 18 | 2.14 | 90 | 1.55 | 50 (≈ 83.5 µM) | 100 (≈ 167 µM) | > 100 | 25 (≈ 41.8 µM) | ILS* (ratio of ILS % to that of mitomycin C) (P388 Leukemia; dose 50 mg/kg): > 1.34; solubility (Solubility in water): > 5 mg/mL
CO[C@@]12[C@H](COC(N)=O)C3=C(C(=O)C(C)=C(NCCSSCCSC(C)=O)C3=O)N1C[C@@H]1N[C@@H]12 [Compound 33, 7-N-[2-[[2-(acetylthio)ethyl]dithio]ethyl]mitomycin C] | 5.6 | 1.27 | 4.7 | 0.36 | 0.078 (≈ 0.148 µM) | 0.039 (≈ 0.0738 µM) | 0.63 (≈ 1.19 µM) | 0.63 (≈ 1.19 µM) | MIC (Escherichia coli ATCC 26; Escherichia coli, ATCC26, pH 7, read-out: minimum inhibitory concentration, EC): > 40 µg/mL
CO[C@@]12[C@H](COC(N)=O)C3=C(C(=O)C(C)=C(NCCSSCCNC(=O)c4cc(=O)[nH]c(=O)[nH]4)C3=O)N1C[C@@H]1N[C@@H]12 [Compound 14, 7-N-[2-[(2-orotamidoethyl)dithio]ethyl]mitomycin C] | 11.5 | 1.2 | 45 | 1.68 |  |  |  |  | ILS* (ratio of ILS % to that of mitomycin C) (P388 Leukemia; dose 20.3 mg/kg): > 2.60
CO[C@@]12[C@H](COC(N)=O)C3=C(C(=O)C(C)=C(NCCSSCCNC(=O)/C=C(C)/C=C/C=C(C)/C=C/C4=C(C)CCCC4(C)C)C3=O)N1C[C@@H]1N[C@@H]12 [Compound 15] | 7.4 | 3 | 16.9 | 0.82 | 0.078 (≈ 0.104 µM) | 0.63 (≈ 0.838 µM) | 2.5 (≈ 3.32 µM) | 1.3 (≈ 1.73 µM) | 
CC(=O)NCCSSCCNC1=C(C)C(=O)C2=C(C1=O)[C@H](COC(N)=O)[C@@]1(O)[C@@H]3[C@H](CN21)N3C (stereo partly drawn) [Compound 17, 7-N-[2-[(2-acetamidoethyl)dithio]ethyl]mitomycin D] | 7.3 | 2.6 | 60 | 2.73 | > 50 | 25 (≈ 48.9 µM) |  | > 50 | ILS* (ratio of ILS % to that of mitomycin C) (P388 Leukemia; dose 25 mg/kg): > 1.78
CO[C@@]12[C@H](COC(N)=O)C3=C(C(=O)C(C)=C(NCCSSCCCCNC(=O)CC[C@H](N)C(=O)O)C3=O)N1C[C@@H]1N[C@@H]12 [Compound 5, 7-N-[2-[[4-(N^5 -L-glutamino)butyl]dithio]ethyl]mitomycin C] | 8.4 | 3.21 | 30 | 1.66 | 1.6 (≈ 2.55 µM) | 1.6 (≈ 2.55 µM) | 0.8 (≈ 1.28 µM) | 1.6 (≈ 2.55 µM) | solubility (Solubility in water): > 20 mg/mL
CO[C@@]12[C@H](COC(N)=O)C3=C(C(=O)C(C)=C(NCCSSCCC(N)=O)C3=O)N1C[C@@H]1N[C@@H]12 [Compound 21, 7-N-[2-[(2-carbamoylethyl)dithio]ethyl]mitomycin C] | 11.8 | 1.01 | 18.8 | 0.68 | 0.63 (≈ 1.27 µM) | 1.3 (≈ 2.61 µM) | 1.3 (≈ 2.61 µM) | 5 (≈ 10 µM) | 
CO[C@@]12[C@H](COC(N)=O)C3=C(C(=O)C(C)=C(NCCSSCCNC(=O)[C@@H](N)CCC(=O)O)C3=O)N1C[C@@H]1N[C@@H]12 [Compound 9, 7-N-[2-[[2-(N^2 -L-glutamino)ethyl]dithio]ethyl]mitomycin C] | 7.7 |  |  |  |  |  |  |  | solubility (Solubility in water): > 20 mg/mL
